In series [1] the target is T1, Interleukin-1 receptor-associated kinase 4 (Homo sapiens) (UniProt Q9NWZ3).
T1 sequence (whole entry): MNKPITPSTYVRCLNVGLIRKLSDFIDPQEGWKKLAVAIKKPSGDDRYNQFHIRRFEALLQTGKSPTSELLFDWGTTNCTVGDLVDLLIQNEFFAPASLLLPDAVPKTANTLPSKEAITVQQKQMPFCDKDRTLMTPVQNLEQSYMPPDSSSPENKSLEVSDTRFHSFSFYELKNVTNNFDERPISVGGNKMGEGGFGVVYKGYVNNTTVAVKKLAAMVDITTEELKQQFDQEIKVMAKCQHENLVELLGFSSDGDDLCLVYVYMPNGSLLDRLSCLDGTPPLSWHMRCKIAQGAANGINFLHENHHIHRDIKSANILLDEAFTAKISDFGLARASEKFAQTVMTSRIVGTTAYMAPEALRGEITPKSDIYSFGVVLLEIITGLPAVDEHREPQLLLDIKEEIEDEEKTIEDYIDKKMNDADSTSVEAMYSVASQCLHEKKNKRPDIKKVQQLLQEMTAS
Kind of series: Inhibition of IRAK4 (unknown origin) at 1 uM by single point assay.

The test system of series [2] is Plasma. Nature of the series: Plasma concentration in mouse expressing mouse LRRK2 G2019S mutant at 100 mg/kg, po. The format is ADME, organism-based. Conditions: in vivo. More on the design: dose 100 mg/kg, route oral.
Series [3] relates to Brain. Kind of series: Drug uptake in brain of mouse expressing mouse LRRK2 G2019S mutant at 100 mg/kg, po. The series is classed as ADME, organism-based. More on the design: dose 100 mg/kg, route oral. To be noted: in vivo.
Series [4] deals with Mus musculus. Nature of the series: In vivo inhibition of mouse LRRK2 G2019S mutant phosphorylation at Ser935 expressed in mouse brain at 30 mg/kg, po measured after 3 hrs by ELISA. The format is functional. (In an ELISA, binding on a coated surface is turned into a signal by an enzyme label.)
Series [5] concerns the target Mitogen-activated protein kinase 10 (Homo sapiens) (UniProt P53779). Kind of series: Inhibition of MAPK10 (unknown origin) at 1 uM by single point assay.
Series [6] deals with Tyrosine-protein kinase SYK (Homo sapiens) (UniProt P43405). Nature of the series: Inhibition of SYK (unknown origin) at 10 uM by single point assay.
Series [7] has as its target T2, Serine/threonine-protein kinase 3 (Homo sapiens) (UniProt Q13188).
T2 sequence (whole entry): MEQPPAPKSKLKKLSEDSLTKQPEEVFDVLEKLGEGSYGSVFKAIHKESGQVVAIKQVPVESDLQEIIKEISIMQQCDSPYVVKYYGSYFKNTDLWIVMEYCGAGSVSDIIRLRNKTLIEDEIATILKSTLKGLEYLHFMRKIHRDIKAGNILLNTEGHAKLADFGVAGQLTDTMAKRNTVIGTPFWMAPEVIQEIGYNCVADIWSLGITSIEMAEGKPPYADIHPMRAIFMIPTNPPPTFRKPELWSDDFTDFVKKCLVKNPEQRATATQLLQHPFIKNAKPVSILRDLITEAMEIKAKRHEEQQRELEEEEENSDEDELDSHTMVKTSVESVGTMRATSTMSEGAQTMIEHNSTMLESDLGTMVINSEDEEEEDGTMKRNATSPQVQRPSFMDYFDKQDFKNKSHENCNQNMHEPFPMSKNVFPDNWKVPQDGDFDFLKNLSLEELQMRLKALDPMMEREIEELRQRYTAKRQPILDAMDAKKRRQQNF
Nature of the series: Inhibition of STK3 (unknown origin) at 10 uM by single point assay.

For series [8], the target named is Receptor-interacting serine/threonine-protein kinase 2 (Homo sapiens) (UniProt O43353). Nature of the series: Inhibition of RIPK2 (unknown origin) at 10 uM by single point assay.
The target of series [9] is Proto-oncogene tyrosine-protein kinase receptor Ret (Homo sapiens) (UniProt P07949). Kind of series: Inhibition of RET (unknown origin) at 10 uM by single point assay.
Series [10] addresses Protein-tyrosine kinase 2-beta (Homo sapiens) (UniProt Q14289). Nature of the series: Inhibition of PTK2B (unknown origin) at 10 uM by single point assay.
Series [11] concerns the target cAMP-dependent protein kinase catalytic subunit alpha (Homo sapiens) (UniProt P17612). Kind of series: Inhibition of PRKACA (unknown origin) at 10 uM by single point assay.
Series [12] concerns the target Serine/threonine-protein kinase PLK3 (Homo sapiens) (UniProt Q9H4B4). Nature of the series: Inhibition of PLK3 (unknown origin) at 10 uM by single point assay.
Series [13] deals with PI3-kinase p110-alpha/p85-alpha (Homo sapiens) (UniProt P27986+P42336). Kind of series: Inhibition of PIK3CA/PIK3R1 (unknown origin) at 10 uM by single point assay. The series is classed as protein-complex assay.
The target of series [14] is Platelet-derived growth factor receptor alpha (Homo sapiens) (UniProt P16234). Nature of the series: Inhibition of PDGFRalpha (unknown origin) at 10 uM by single point assay.
Series [15] deals with Mitogen-activated protein kinase 1 (Homo sapiens) (UniProt P28482). Kind of series: Inhibition of MAPK1 (unknown origin) at 10 uM by single point assay.
Series [16] addresses Insulin receptor (Homo sapiens) (UniProt P06213). Kind of series: Inhibition of INSR (unknown origin) at 10 uM by single point assay.
In series [17] the target is Dual specificity tyrosine-phosphorylation-regulated kinase 1B (Homo sapiens) (UniProt Q9Y463). Kind of series: Inhibition of DYRK1B (unknown origin) at 10 uM by single point assay.
The target in series [18] is Dual specificity protein kinase CLK1 (Homo sapiens) (UniProt P49759). Nature of the series: Inhibition of CLK1 (unknown origin) at 10 uM by single point assay.
The target of series [19] is Macrophage colony-stimulating factor 1 receptor (Homo sapiens) (UniProt P07333). Kind of series: Inhibition of CSF1R (unknown origin) at 10 uM by single point assay.
Series [20] addresses Calcium/calmodulin-dependent protein kinase type II subunit alpha (Homo sapiens) (UniProt Q9UQM7). Kind of series: Inhibition of CAMK2alpha (unknown origin) at 10 uM by single point assay.
Series [21] concerns the target T3, Aurora kinase A (Homo sapiens) (UniProt O14965).
T3 sequence (whole entry): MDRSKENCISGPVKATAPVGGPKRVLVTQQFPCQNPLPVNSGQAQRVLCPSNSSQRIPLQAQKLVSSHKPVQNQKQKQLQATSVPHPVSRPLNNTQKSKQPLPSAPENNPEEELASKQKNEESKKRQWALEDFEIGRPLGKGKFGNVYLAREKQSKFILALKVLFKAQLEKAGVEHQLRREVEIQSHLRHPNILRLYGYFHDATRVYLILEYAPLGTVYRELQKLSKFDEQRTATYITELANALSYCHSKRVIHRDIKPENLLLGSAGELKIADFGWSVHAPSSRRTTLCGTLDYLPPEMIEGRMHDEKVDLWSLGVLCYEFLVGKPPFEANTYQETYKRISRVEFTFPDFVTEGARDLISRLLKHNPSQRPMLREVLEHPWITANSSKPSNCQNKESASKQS
Kind of series: Inhibition of AURKA (unknown origin) at 10 uM by single point assay.

Series [22] has as its target RAC-alpha serine/threonine-protein kinase (Homo sapiens) (UniProt P31749). Kind of series: Inhibition of AKT1 (unknown origin) at 10 uM by single point assay.
Series [23] concerns the target Tyrosine-protein kinase ABL1 (Homo sapiens) (UniProt P00519). Nature of the series: Inhibition of ABL1 (unknown origin) at 10 uM by single point assay.

In general, inhibition refers to the relative decrease from the control value, in per cent. The inhibition in vivo is the change of the read-out against control, counted positive when it falls. High values mean strong suppression, low ones little suppression.

The structures appear in SMILES notation.

Receptor-interacting serine/threonine-protein kinase 2 (Homo sapiens), sequence (O43353 whole entry): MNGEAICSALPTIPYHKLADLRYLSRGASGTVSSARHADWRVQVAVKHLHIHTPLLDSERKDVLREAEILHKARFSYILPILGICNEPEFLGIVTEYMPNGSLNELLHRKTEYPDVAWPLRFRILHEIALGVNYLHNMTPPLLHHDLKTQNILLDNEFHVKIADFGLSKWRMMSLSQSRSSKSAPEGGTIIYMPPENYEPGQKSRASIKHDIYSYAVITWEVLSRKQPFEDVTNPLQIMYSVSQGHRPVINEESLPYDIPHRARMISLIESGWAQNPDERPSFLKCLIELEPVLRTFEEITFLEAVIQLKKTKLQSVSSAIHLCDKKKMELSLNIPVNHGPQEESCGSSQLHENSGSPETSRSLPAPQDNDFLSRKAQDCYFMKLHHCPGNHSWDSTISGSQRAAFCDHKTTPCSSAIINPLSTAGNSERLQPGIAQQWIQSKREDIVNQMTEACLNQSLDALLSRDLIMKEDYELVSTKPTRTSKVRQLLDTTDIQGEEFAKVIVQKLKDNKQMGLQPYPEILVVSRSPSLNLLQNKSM
Dual specificity protein kinase CLK1 (Homo sapiens), sequence (P49759 whole entry, looked up): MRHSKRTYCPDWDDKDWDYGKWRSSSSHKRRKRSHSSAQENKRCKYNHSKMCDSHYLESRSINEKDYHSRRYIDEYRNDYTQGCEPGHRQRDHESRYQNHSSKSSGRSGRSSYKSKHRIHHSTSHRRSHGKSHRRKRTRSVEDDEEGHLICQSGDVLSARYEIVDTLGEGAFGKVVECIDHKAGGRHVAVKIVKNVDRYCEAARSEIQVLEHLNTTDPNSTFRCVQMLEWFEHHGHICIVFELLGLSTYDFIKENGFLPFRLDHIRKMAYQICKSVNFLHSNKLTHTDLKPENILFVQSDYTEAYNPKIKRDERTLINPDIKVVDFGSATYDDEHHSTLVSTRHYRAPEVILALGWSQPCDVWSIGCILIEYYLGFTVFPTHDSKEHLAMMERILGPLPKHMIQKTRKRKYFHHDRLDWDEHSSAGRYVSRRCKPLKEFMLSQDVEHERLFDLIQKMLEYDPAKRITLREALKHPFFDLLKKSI
Platelet-derived growth factor receptor alpha (Homo sapiens), sequence (P16234 whole entry): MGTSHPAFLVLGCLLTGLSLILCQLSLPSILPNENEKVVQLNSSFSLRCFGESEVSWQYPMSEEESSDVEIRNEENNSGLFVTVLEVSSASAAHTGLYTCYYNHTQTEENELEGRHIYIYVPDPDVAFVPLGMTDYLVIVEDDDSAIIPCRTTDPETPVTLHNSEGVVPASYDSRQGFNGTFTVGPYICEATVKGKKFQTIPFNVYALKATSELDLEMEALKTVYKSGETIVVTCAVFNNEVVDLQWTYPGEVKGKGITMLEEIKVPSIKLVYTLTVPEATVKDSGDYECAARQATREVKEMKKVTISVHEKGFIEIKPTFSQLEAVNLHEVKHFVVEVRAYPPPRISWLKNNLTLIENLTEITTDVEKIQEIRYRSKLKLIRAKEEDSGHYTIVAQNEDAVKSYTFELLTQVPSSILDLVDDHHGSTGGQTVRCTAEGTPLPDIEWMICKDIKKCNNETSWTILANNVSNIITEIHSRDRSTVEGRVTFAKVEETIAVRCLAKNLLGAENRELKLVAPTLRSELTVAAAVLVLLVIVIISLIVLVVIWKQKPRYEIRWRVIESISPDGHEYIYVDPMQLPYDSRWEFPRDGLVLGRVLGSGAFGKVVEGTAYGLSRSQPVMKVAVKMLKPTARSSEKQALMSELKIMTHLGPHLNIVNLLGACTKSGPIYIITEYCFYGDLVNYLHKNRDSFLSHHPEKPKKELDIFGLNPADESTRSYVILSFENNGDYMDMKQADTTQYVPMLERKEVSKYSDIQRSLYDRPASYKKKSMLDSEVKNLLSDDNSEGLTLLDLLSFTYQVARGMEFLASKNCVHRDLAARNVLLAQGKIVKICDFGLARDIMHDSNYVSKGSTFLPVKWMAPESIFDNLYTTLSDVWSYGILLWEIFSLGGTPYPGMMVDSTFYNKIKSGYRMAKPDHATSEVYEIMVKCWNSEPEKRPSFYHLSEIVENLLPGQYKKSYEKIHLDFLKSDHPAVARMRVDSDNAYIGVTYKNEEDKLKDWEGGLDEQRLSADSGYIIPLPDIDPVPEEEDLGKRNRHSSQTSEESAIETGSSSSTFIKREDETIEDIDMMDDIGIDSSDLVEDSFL
Dual specificity tyrosine-phosphorylation-regulated kinase 1B (Homo sapiens), sequence (Q9Y463 whole entry, looked up): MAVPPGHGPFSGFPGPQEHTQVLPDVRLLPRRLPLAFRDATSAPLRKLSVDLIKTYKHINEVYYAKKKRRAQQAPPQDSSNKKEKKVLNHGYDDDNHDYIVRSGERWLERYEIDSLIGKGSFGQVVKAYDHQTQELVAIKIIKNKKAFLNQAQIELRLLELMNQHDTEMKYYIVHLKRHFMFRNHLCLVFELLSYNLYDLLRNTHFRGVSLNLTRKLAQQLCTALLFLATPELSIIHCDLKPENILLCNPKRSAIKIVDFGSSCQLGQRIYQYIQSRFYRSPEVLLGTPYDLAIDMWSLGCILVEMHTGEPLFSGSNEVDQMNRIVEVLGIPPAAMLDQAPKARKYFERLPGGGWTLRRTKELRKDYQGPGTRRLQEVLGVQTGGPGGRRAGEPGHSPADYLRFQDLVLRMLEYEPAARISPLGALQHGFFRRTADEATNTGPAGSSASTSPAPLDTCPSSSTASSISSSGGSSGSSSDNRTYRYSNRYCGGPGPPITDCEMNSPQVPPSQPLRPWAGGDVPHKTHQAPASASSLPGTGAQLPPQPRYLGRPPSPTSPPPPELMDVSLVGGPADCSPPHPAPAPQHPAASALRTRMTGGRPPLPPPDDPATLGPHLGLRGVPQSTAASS
RAC-alpha serine/threonine-protein kinase (Homo sapiens), sequence (P31749 whole entry): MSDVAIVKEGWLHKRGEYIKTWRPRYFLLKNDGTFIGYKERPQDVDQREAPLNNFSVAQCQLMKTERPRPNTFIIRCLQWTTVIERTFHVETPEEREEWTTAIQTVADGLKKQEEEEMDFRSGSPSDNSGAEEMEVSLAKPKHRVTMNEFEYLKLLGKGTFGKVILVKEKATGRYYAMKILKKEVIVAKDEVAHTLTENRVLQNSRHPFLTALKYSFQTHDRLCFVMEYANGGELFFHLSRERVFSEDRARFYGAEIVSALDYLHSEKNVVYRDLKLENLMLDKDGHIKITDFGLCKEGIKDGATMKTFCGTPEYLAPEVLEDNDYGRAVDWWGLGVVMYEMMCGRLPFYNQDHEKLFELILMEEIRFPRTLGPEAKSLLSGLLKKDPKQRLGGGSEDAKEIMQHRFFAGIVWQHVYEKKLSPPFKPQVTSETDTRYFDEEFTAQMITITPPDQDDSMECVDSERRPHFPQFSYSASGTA
Proto-oncogene tyrosine-protein kinase receptor Ret (Homo sapiens), sequence (P07949 whole entry): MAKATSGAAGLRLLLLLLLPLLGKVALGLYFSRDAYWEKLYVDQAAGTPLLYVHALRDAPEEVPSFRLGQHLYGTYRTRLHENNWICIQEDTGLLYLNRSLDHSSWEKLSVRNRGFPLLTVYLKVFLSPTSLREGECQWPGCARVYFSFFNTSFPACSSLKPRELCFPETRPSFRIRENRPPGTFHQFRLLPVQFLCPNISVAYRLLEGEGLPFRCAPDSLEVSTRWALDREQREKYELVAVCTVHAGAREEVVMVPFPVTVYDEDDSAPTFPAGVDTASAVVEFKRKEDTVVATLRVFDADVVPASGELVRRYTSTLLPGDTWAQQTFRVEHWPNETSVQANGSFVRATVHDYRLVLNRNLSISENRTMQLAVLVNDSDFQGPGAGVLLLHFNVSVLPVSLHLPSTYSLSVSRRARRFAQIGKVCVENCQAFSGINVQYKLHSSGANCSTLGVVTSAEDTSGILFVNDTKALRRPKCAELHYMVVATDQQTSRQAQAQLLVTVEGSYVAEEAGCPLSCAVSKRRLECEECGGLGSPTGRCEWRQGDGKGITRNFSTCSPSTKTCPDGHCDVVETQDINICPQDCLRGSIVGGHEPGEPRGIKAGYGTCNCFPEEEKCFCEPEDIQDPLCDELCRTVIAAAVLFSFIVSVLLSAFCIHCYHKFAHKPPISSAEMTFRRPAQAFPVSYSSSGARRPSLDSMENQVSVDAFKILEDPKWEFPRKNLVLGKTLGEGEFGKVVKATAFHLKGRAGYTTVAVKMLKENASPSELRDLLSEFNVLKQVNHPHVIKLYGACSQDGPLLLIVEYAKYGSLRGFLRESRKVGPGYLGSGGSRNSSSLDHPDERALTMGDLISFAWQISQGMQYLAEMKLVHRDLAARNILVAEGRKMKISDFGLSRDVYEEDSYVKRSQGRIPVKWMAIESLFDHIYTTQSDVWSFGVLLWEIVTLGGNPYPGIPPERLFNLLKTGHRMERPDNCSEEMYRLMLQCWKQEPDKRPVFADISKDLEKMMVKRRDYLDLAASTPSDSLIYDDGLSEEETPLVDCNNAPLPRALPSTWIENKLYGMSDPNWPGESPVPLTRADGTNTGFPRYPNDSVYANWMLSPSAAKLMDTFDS
Serine/threonine-protein kinase PLK3 (Homo sapiens), sequence (Q9H4B4 whole entry, looked up): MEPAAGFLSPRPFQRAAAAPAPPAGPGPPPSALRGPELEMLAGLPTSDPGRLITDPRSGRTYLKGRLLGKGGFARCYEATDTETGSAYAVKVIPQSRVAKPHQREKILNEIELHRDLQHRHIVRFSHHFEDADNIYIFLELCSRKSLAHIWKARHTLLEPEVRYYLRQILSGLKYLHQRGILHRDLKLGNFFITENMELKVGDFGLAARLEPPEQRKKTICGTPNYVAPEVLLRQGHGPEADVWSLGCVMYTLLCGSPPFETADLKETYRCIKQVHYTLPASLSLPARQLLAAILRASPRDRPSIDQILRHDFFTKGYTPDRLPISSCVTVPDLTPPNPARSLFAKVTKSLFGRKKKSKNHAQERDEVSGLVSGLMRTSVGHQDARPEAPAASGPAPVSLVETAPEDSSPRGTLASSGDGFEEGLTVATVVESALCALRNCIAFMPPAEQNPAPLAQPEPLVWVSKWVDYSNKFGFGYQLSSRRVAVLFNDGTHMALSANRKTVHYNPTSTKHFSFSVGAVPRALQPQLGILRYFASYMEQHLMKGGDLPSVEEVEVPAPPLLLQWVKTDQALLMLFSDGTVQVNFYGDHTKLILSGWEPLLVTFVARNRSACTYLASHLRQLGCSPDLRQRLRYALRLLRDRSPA

As for `CC(C)Nc1c(C#N)cnc2cc(-c3ccc(S(C)(=O)=O)cc3)ccc12`, the inhibition in series [1] turned out to be 29%.

Take `CC(C)Nc1c(C#N)cnc2cc(-c3cnn(C)c3)ccc12`: the Cp in series [2] was determined as 31.8 ng/mL. For the same compound, the Drug uptake in series [3] is 81.1 ng/mL. Besides, the inhibition in vivo at 30 mg/kg in [4] was 30%. Besides, the inhibition in series [5] was determined as 4%; in series [1], 68%.

For the compound `C[C@@H](Nc1c(C#N)cnc2cc(-c3ccc(-n4ccoc4=O)cc3)ccc12)C1CC1`, the inhibition in series [6] was 71%; in series [7], 18%; in [8], 56%; in [9], 12%; in series [10], 16%; in series [11], -3%. In addition, the inhibition in [12] was 6%; in [13], 13%; in series [14], 5%; in series [15] it was -2%; in series [16] it was 0%; in series [17] it was 24%. The inhibition in [18] is 7%; in [19] it was 39%; in [20], 30%; in series [21] it was 67%; in series [22], -2%; in series [23] it was 30%.

(Values after ChEMBL document CHEMBL2346515, “Discovery of 4-alkylamino-7-aryl-3-cyanoquinoline LRRK2 kinase inhibitors” (Bioorg Med Chem Lett, 2013).)
